Data from the supplement of paper PMC10307832.

Assays:
Assay in all cases: relative viability (nuclei count vs DMSO), 5 days (fraction); higher = more cells survive
[1] = compound: COC1=CC=C(C=C1)CN2C=CC3=C2C=C(C=C3)C(=O)NO + CC(C)C[C@H](NC(=O)[C@H](Cc1ccccc1)NC(=O)c1cnccn1)B(O)O [Bortezomib] (partner 0.002 µM)
Method in brief: (§1)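 Relative viability is defined as nuclei in treated wells over nuclei in vehicle wells. Duplicate plates were run and medians reported. Lung cancer cell lines in 1536-well plates were dosed by pin tool one day after seeding, with one drug or with a fixed anchor-drug dose plus five library-drug doses (not always all listed) in √10 steps, and nuclei were counted after 5 days.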

[2] = compound: COC1=CC=C(C=C1)CN2C=CC3=C2C=C(C=C3)C(=O)NO + C[C@]1(O)C[C@@H](c2nc(-c3ccc4ccc(-c5ccccc5)nc4c3)c3c(N)nccn32)C1 [Linsitinib] (partner 1 µM)
Method in brief: as §1

Veliparib + Palbociclib = compound: C[C@]1(c2nc3c(C(N)=O)cccc3[nH]2)CCCN1 [Veliparib] + CC(=O)c1c(C)c2cnc(Nc3ccc(N4CCNCC4)cn3)nc2n(C2CCCC2)c1=O [Palbociclib] (partner 0.5 µM)
Method in brief: as §1

Veliparib + Dasatinib = compound: C[C@]1(c2nc3c(C(N)=O)cccc3[nH]2)CCCN1 [Veliparib] + Cc1nc(Nc2ncc(C(=O)Nc3c(C)cccc3Cl)s2)cc(N2CCN(CCO)CC2)n1 [Dasatinib] (partner 0.075 µM)
Method in brief: as §1

| Cell Line | relative viability ([1]; first compound 0.253 µM) | relative viability ([1]; first compound 0.8 µM) | relative viability ([1]; first compound 2.53 µM) | relative viability ([1]; first compound 8 µM) | relative viability ([2]; first compound 0.253 µM) | relative viability ([2]; first compound 0.8 µM) | relative viability ([2]; first compound 2.53 µM) | relative viability ([2]; first compound 8 µM) | relative viability (Veliparib + Palbociclib; first compound 0.02 µM) | relative viability (Veliparib + Palbociclib; first compound 0.06325 µM) | relative viability (Veliparib + Palbociclib; first compound 0.2 µM) | relative viability (Veliparib + Palbociclib; first compound 0.6325 µM) | relative viability (Veliparib + Palbociclib; first compound 2 µM) | relative viability (Veliparib + Dasatinib; first compound 0.02 µM) | relative viability (Veliparib + Dasatinib; first compound 0.06325 µM) | relative viability (Veliparib + Dasatinib; first compound 0.2 µM) | relative viability (Veliparib + Dasatinib; first compound 0.6325 µM) | relative viability (Veliparib + Dasatinib; first compound 2 µM) | relative viability ([1]; first compound 0.08 µM) | relative viability ([2]; first compound 0.08 µM) |
| --- | --- | --- | --- | --- | --- | --- | --- | --- | --- | --- | --- | --- | --- | --- | --- | --- | --- | --- | --- | --- |
| HCC-366 | 1.12 | 1.03 | 1.02 | 0.934 | 0.98 | 0.636 | 0.673 | 0.696 | 0.352 | 0.371 | 0.369 | 0.371 | 0.341 | 0.524 | 0.514 | 0.582 | 0.572 | 0.588 | – | – |
| HCC-827 | 0.929 | 1.05 | 0.896 | 1.04 | 0.94 | 0.942 | 0.981 | 0.883 | 0.458 | 0.459 | 0.51 | 0.176 | 0.454 | 0.362 | 0.302 | 0.266 | 0.205 | 0.364 | 1.01 | 0.994 |
| HOP-62 | 0.841 | 0.912 | 0.853 | 0.946 | 1.06 | 1.01 | 0.924 | 1.04 | 0.384 | 0.333 | 0.483 | 0.343 | 0.368 | 0.634 | 0.549 | 0.705 | 0.648 | 0.651 | 0.893 | 0.681 |
| LC-2-ad | 0.989 | 1 | 0.959 | 0.769 | 0.851 | 0.873 | 0.999 | 0.804 | 0.485 | 0.496 | 0.508 | 0.477 | 0.505 | – | 0.423 | 0.669 | 0.556 | 0.388 | 0.964 | 0.783 |
| LCLC-97TM1 | 0.333 | 0.791 | 0.734 | 0.527 | 0.212 | 0.225 | 0.206 | 0.156 | 0.219 | 0.194 | 0.233 | 0.23 | 0.249 | 0.848 | 0.845 | 0.895 | 0.653 | 0.864 | – | – |
| LCLC-103H | 0.998 | 1.11 | 1 | 1.06 | 1.13 | 0.991 | 1.07 | 1.02 | 0.44 | 0.417 | 0.48 | 0.44 | 0.456 | 0.5 | 0.469 | 0.449 | 0.495 | 0.482 | 0.982 | 1.03 |
| LOU-NH91 | 0.472 | 0.466 | 0.476 | 0.504 | 0.995 | 1.04 | 0.954 | 0.913 | 0.538 | 0.546 | 0.552 | 0.574 | 0.538 | 0.529 | 0.522 | 0.537 | 0.544 | 0.53 | 0.387 | 0.74 |
